Drawing on patent publication US20080194574A1, “Pyrazine Derivatives As Effective Compounds Against Infectious Diseases” (AXXIMA PHARMACEUTICALS AG, priority 2003, published 2008), this text covers IC50 for 35 compounds.

pIC50: −log10 of the molar value. Like-named read-outs stand apart in the source and are kept apart here. Some results are limits rather than exact numbers.

The target of the experiment is T1, viral kinase pUL-97 (Human cytomegalovirus, UniProt P16788).
T1 construct: The pUL-97 gene was cloned into a baculovirus vector; GST (glutathione S-transferase) (N); made in house; host or cells: Sf9 insect cells, baculovirus
T1 sequence (P16788 whole entry): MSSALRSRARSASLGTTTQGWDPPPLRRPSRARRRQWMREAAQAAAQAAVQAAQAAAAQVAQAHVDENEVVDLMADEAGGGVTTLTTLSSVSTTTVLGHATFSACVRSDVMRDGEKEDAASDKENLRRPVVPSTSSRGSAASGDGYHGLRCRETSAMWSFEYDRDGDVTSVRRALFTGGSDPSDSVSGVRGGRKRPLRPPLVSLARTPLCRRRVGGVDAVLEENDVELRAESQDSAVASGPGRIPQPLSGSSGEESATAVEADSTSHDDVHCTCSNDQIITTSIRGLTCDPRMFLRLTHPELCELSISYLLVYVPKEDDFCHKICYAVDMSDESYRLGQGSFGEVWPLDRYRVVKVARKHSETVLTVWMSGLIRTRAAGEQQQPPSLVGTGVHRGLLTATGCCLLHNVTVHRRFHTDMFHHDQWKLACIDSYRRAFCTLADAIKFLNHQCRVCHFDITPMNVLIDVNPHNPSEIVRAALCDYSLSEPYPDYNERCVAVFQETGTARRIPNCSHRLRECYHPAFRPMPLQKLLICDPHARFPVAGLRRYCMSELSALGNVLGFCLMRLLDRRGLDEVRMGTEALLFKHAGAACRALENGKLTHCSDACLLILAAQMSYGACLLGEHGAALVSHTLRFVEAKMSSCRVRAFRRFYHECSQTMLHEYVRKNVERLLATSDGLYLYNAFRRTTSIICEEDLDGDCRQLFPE
The experiment in a line: UL97 kinase assay on Immobilon plate. Conditions: inhibition of UL 97 kinase activity, read-out: Activity Class [A, B, C]. It counts as biochemical. The method, then: UL97 Kinase-Assay on Immobilon Plate
The effect of pyrazine derivatives of this invention was tested on the activity of the viral kinase pUL-97. This kinase is derived from human cytomegalovirus (HCMV) (M. Marschall et al., Journal of General Virology, 2001, 82, 1439-1450). The pUL-97 gene was cloned into a baculovirus vector in order to produce GST (glutathione S-transferase) fusion protein. Insect cells (Sf9) were infected and GST-UL-97 purified via glutathione affinity columns according to standard procedures.
The pUL-97 kinase reaction was performed as described (M. Marschall et al., Journal of General Virology, 2001, 82, 1439-1450). Briefly, 10 μl Assay buffer (3 μM ATP, 60 μg/ml myelin basic protein (MBP) as substrate), 1.0 μCi γ-[^33P]ATP and 10 μl Basic buffer (20 mM Tris-HCl pH7.5, 0.5 mM MnCl2, 1 mM DTT (Dithiothreitol)) were given to the test tube before adding various concentrations of pyrazine derivatives. The reaction was started by adding 0.2 μl pUL-97 kinase, purified from infected Sf9-insect cells as described above. The total volume was adjusted with Basic buffer to a final volume of 30 μl. The reaction mix was incubated for 1 hr at 30° C. For negative control, 10 μl 0.1M EDTA (Ethylene Diamine tetraacetate) was added to reaction mix before addition of pUL-97 protein kinase. The reaction was stopped by addition of 10 μl 0.1 M EDTA.
Measuring Incorporation of Radioactivity:
The Immobilon plate (Millipore) was rinsed with 50 μl methanol/well. Following addition of 100 μl 0.1 M EDTA, 20 μl of each kinase reaction mix was added to one well of the Immobilon plate. Each well was washed 4× with 250 μl 0.75% phosphoric acid and 1× with 50 μl methanol. After addition of 50 μl scintillation cocktail (Roth, Germany) per well incorporation of radioactivity was measured using a Betareader (Wallac) and enzymatic activity calculated.

The mark [1] stands for this setting: class by IC50 / % inhibition at 10 μM or 100 μM.
Where [2] appears, read: class by IC50 / % inhibition at 10 or 100 μM.

In the case of `Fc1ccc(N2CCN(c3cncc(-c4csc5ccccc45)n3)CC2)cc1` [compound 235, 6′-Benzo[b]thiophen-3-yl-4-(4-fluoro-phenyl)-3,4,5,6-tetrahydro-2H-[1,2′]bipyrazinyl], under setting [1], the pIC50 was 5.00 to 6.00.

For `COc1cccc(N2CCN(c3cncc(-c4ccoc4)n3)CC2)c1` [compound 324, 6′-Furan-3-yl-4-(3-methoxy-phenyl)-3,4,5,6-tetrahydro-2H-[1,2′]bipyrazinyl], the pIC50 under setting [1] is 4.00 to 5.00.

In the case of `COc1ccc(N2CCN(c3cncc(-c4ccccc4)n3)CC2)cc1` [compound 291, 4-(4-Methoxy-phenyl)-6′-phenyl-3,4,5,6-tetrahydro-2H-[1,2′]bipyrazinyl], the pIC50 under setting [1] is 4.00 to 5.00.

In the case of `Fc1ccc(N2CCN(c3cncc(-c4ccc(-c5ccccc5)c(F)c4)n3)CC2)cc1` [compound 268, 6′-(2-Fluoro-biphenyl-4-yl)-4-(4-fluoro-phenyl)-3,4,5,6-tetrahydro-2H-[1,2′]bipyrazinyl], under setting [1], the pIC50 was 4.00 to 5.00.

As to `COc1ccc2cc(-c3cncc(N4CCN(c5ccc(OC)c(OC)c5)CC4)n3)ccc2c1` [compound 169, 4-(3,4-Dimethoxy-phenyl)-6′-(6-methoxy-naphthalen-2-yl)-3,4,5,6-tetrahydro-2H-[1,2′]bipyrazinyl], under setting [2], the pIC50 was 5.00 to 6.00.

For the compound `CC(=O)c1ccc(N2CCN(c3cncc(-c4ccc(F)c(Cl)c4)n3)CC2)cc1` [compound 151], the pIC50 under setting [2] was 4.00 to 5.00.

In the case of `COc1ccc(OC)c(-c2cncc(N3CCN(c4ccc(OC)c(OC)c4)CC3)n2)c1` [compound 225, 4-(3,4-Dimethoxy-phenyl)-6′-(2,5-dimethoxy-phenyl)-3,4,5,6-tetrahydro-2H-[1,2′]bipyrazinyl], under setting [1], the pIC50 was 4.00 to 5.00.

Turning to `CC(=O)c1cccc(-c2cncc(N3CCN(c4cccc(C(F)(F)F)c4)CC3)n2)c1` [compound 162, 1-{3-[4-(3-Trifluoromethyl-phenyl)-3,4,5,6-tetrahydro-2H-[1,2′]bipyrazinyl-6′-yl]-phenyl}-ethanone], the pIC50 under setting [2] was 4.00 to 5.00.

In the case of `Cc1cccc(N2CCN(c3cncc(-c4cc5ccccc5s4)n3)CC2)c1C` [compound 295, 6′-Benzo[b]thiophen-2-yl-4-(2,3-dimethyl-phenyl)-3,4,5,6-tetrahydro-2H-[1,2′]bipyrazinyl], the pIC50 under setting [1] was 4.00 to 5.00.

With `Cc1ccc(N2CCN(c3cncc(-c4ccc(F)c(Cl)c4)n3)CC2)cc1C` [compound 316, 6′-(3-Chloro-4-fluoro-phenyl)-4-(3,4-dimethyl-phenyl)-3,4,5,6-tetrahydro-2H-[1,2′]bipyrazinyl], the pIC50 under setting [1] is 4.00 to 5.00.

For `c1ccc(-c2cncc(N3CCN(c4ccncc4)CC3)n2)cc1` [compound 67, 6′-Phenyl-4-pyridin-4-yl-3,4,5,6-tetrahydro-2H-[1,2′]bipyrazinyl], the pIC50 under setting [2] was 5.00 to 6.00.

With `COc1ccc(-c2cncc(N3CCN(c4ccncc4)CC3)n2)cc1OC` [compound 77, 6′-(3,4-Dimethoxy-phenyl)-4-pyridin-4-yl-3,4,5,6-tetrahydro-2H-[1,2′]bipyrazinyl], the pIC50 under setting [2] was more than 6.00.

As for `c1ccc(C2CCN(c3cncc(-c4csc5ccccc45)n3)CC2)cc1` [compound 319, 2-Benzo[b]thiophen-3-yl-6-(4-phenyl-piperidin-1-yl)-pyrazine], the pIC50 under setting [1] was 4.00 to 5.00.

On to `Fc1ccccc1N1CCN(c2cncc(-c3ccc(C(F)(F)F)cc3)n2)CC1` [compound 197, 4-(2-Fluoro-phenyl)-6′-(4-trifluoromethyl-phenyl)-3,4,5,6-tetrahydro-2H-[1,2′]bipyrazinyl], for which, under setting [1], the pIC50 is 5.00 to 6.00.

Regarding `FC(F)(F)c1cccc(N2CCN(c3cncc(-c4ccccc4Oc4ccccc4)n3)CC2)c1` [compound 217, 6′-(2-Phenoxy-phenyl)-4-(3-trifluoromethyl-phenyl)-3,4,5,6-tetrahydro-2H-[1,2′]bipyrazinyl], the pIC50 under setting [1] is 4.00 to 5.00.

Take `COc1ccc(N2CCN(c3cncc(-c4ccccc4C)n3)CC2)cc1OC` [compound 262, 4-(3,4-Dimethoxy-phenyl)-6′-o-tolyl-3,4,5,6-tetrahydro-2H-[1,2′]bipyrazinyl]: under setting [1], the pIC50 was 4.00 to 5.00.

As to `Clc1ccc(-c2cncc(NCc3ccco3)n2)cc1` [compound 26, [6-(4-Chloro-phenyl)-pyrazin-2-yl]-furan-2-ylmethyl-amine], the pIC50 under setting [2] is more than 6.00.

For `Cc1cccc(-c2cncc(N3CCN(c4ccncc4)CC3)n2)c1` [compound 219, 4-Pyridin-4-yl-6′-m-tolyl-3,4,5,6-tetrahydro-2H-[1,2′]bipyrazinyl], under setting [1], the pIC50 is 5.00 to 6.00.

In the case of `CC(=O)c1cccc(-c2cncc(N3CCN(c4ccc(F)cc4F)CC3)n2)c1` [compound 273, 1-{3-[4-(2,4-Difluoro-phenyl)-3,4,5,6-tetrahydro-2H-[1,2′]bipyrazinyl-6′-yl]-phenyl}-ethanone], the pIC50 under setting [1] is 4.00 to 5.00.

With `COc1cccc(-c2cncc(N3CCN(c4cccc(OC)c4)CC3)n2)c1` [compound 366, 4,6′-Bis-(3-methoxy-phenyl)-3,4,5,6-tetrahydro-2H-[1,2′]bipyrazinyl], the pIC50 under setting [1] is 5.00 to 6.00.

Consider `Clc1cccc(N2CCN(c3cncc(-c4ccoc4)n3)CC2)c1` [compound 84, 4-(3-Chloro-phenyl)-6′-furan-3-yl-3,4,5,6-tetrahydro-2H-[1,2′]bipyrazinyl], for which, under setting [2], the pIC50 is 5.00 to 6.00.

For the compound `Cc1cccc(-c2cncc(N3CCN(c4cccc(C(F)(F)F)c4)CC3)n2)c1` [compound 154, 6′-m-Tolyl-4-(3-trifluoromethyl-phenyl)-3,4,5,6-tetrahydro-2H-[1,2′]bipyrazinyl], the pIC50 under setting [2] was 4.00 to 5.00.

As for `c1cncc(-c2cncc(N3CCN(c4ccncc4)CC3)n2)c1` [compound 54, 4-Pyridin-4-yl-6′-pyridin-3-yl-3,4,5,6-tetrahydro-2H-[1,2′]bipyrazinyl], under setting [2], the pIC50 was 4.00 to 5.00.

Consider `COc1cccc(-c2cncc(N3CCN(c4ccccn4)CC3)n2)c1` [compound 304, 6′-(3-Methoxy-phenyl)-4-pyridin-2-yl-3,4,5,6-tetrahydro-2H-[1,2′]bipyrazinyl], for which, under setting [1], the pIC50 is 5.00 to 6.00.

Consider `NC(=O)c1ccc(-c2cncc(N3CCN(c4ccncc4)CC3)n2)cc1` [Comp. 21, 4-(4-Pyridin-4-yl-3,4,5,6-tetrahydro-2H-[1,2′]bipyrazinyl-6′-yl)-benzamide], for which, under setting [2], the pIC50 was more than 6.00.

Turning to `CSc1ccc(-c2cncc(N3CCN(c4ccccc4)CC3)n2)cc1` [compound 120, 6′-(4-Methylsulfanyl-phenyl)-4-phenyl-3,4,5,6-tetrahydro-2H-[1,2′]bipyrazinyl], under setting [2], the pIC50 is 5.00 to 6.00.

In the case of `N#Cc1ccccc1N1CCN(c2cncc(-c3ccc(Cl)cc3)n2)CC1` [compound 42, 2-[6′-(4-Chloro-phenyl)-2,3,5,6-tetrahydro-[1,2′]bipyrazinyl-4-yl]-benzonitrile], under setting [2], the pIC50 is 5.00 to 6.00.

Consider `Cc1cc(C)cc(-c2cncc(N3CCN(c4ccncc4)CC3)n2)c1` [compound 165, 6′-(3,5-Dimethyl-phenyl)-4-pyridin-4-yl-3,4,5,6-tetrahydro-2H-[1,2′]bipyrazinyl], for which the pIC50 under setting [2] is 5.00 to 6.00.

Turning to `Fc1ccc(-c2cncc(N3CCN(c4ccncc4)CC3)n2)cc1` [compound 76, 6′-(4-Fluoro-phenyl)-4-pyridin-4-yl-3,4,5,6-tetrahydro-2H-[1,2′]bipyrazinyl], the pIC50 under setting [2] was 5.00 to 6.00.

With `N#Cc1ccc(-c2cncc(N3CCN(c4ccncc4)CC3)n2)cc1` [compound 131, 4-(4-Pyridin-4-yl-3,4,5,6-tetrahydro-2H-[1,2′]bipyrazinyl-6′-yl)-benzonitrile], under setting [2], the pIC50 is 5.00 to 6.00.

Consider `CC(=O)c1ccc(-c2cncc(N3CCN(c4ccncc4)CC3)n2)s1` [compound 65, 1-[5-(4-Pyridin-4-yl-3,4,5,6-tetrahydro-2H-[1,2′]bipyrazinyl-6′yl)-thiophen-2-yl]-ethanone], for which the pIC50 under setting [2] is more than 6.00.

Turning to `c1ccc2cc(-c3cncc(N4CCN(c5ccncc5)CC4)n3)ccc2c1` [Comp. 72, 6′-Naphthalen-2-yl-4-pyridin-4-yl-3,4,5,6-tetrahydro-2H-[1,2-′]bipyrazinyl], the pIC50 under setting [2] was more than 6.00.

`COc1ccc(N2CCN(c3cncc(-c4cccc(OC)c4OC)n3)CC2)cc1OC` [compound 171, 4-(3,4-Dimethoxy-phenyl)-6′-(2,3-dimethoxy-phenyl)-3,4,5,6-tetrahydro-2H-[1,2′]bipyrazinyl]: the pIC50 under setting [2] was 4.00 to 5.00.

Regarding `Clc1ccc(N2CCN(c3cncc(-c4ccoc4)n3)CC2)cc1` [compound 349, 4-(4-Chloro-phenyl)-6′-furan-3-yl-3,4,5,6-tetrahydro-2H-[1,2′]bipyrazinyl], the pIC50 under setting [1] was 4.00 to 5.00.

For `c1ccc2c(-c3cncc(N4CCN(c5cnccn5)CC4)n3)cccc2c1` [compound 331, 6-Naphthalen-1-yl-2′,3′,5′,6′-tetrahydro-[2,1′;4′,2″]terpyrazine], under setting [1], the pIC50 was 4.00 to 5.00.
